From patent US7452884B2, “Methods for inhibiting angiogenesis” (Fox Chase Cancer Center, priority 2001, dated 2008)
Where two headings read alike, the source gives them in different places.

Experiments:
[1] = test system: PAEC-VEGF-Matrigel implants; details: 250 mg/kg/dose p.o. QD for 6 days, nude mice, p<0.05
[2] = test system: rat aortic ring explant cultures; details: for inhibition of microvessel growth: day 8; for inhibition of microvessel growth relative to vehicle-treated control cultures: day 8 (peak of microvessel growth), serum-free EBM
[3] = test system: SVR angiosarcoma xenografts
[4] = test system: human umbilical vein endothelial cells (HUVECs); assay: Capillary tube formation by HUVECs on Matrigel in vitro; details: for inhibition of complete capillary tube formation relative to vehicle-treated control cultures: 18 h incubation

| Compound | reduction in neovascularization (hemoglobin content) relative to TW:PG vehicle-treated control mice [1] [%] | inhibition of microvessel growth ([2]; 0.4 μM) | inhibition of microvessel growth ([2]; 4 μM) | inhibition of microvessel growth relative to vehicle-treated control cultures ([2]; 40 μM, p<0.05) [%] | inhibition of microvessel growth relative to vehicle-treated control cultures ([2]; 100 μM, p<0.01) [%] | morbidity or mortality of treated mice ([3]; 250 mg/kg/dose p.o. QD for 10 days) | inhibition of tumor growth ([3]; 250 mg/kg/dose p.o. QD, as early as day 4 of dosing, p<0.005) | maximum inhibition of tumor volume relative to TW:PG vehicle-treated mice ([3]; 250 mg/kg/dose p.o. QD, day 10 of dosing, p<0.001) [%] | inhibition of complete capillary tube formation relative to vehicle-treated control cultures ([4]; 4 μM) [%] | inhibition of complete capillary tube formation relative to vehicle-treated control cultures ([4]; 40 μM, p<0.05) [%] | inhibition of complete capillary tube formation relative to vehicle-treated control cultures ([4]; 100 μM, p<0.05) [%] | cytotoxicity to human endothelial cells in culture ([4]; 4, 40 and 100 μM) | maximum reduction in SVR tumor volume relative to vehicle-treated control mice ([3]; 30 mg/kg/dose s.c. Q2D×3, by day 10) [%] |
| --- | --- | --- | --- | --- | --- | --- | --- | --- | --- | --- | --- | --- | --- |
| Cc1c(-c2cnccn2)ssc1=S [Oltipraz, 5-(2-pyrazinyl)-4-methyl-1,2-dithiol-3-thione] | 42 | not inhibitory | not inhibitory | 50 | 95 | absence of apparent morbidity or mortality | significant inhibition of tumor growth | 81 | 23 | 62 | 52 | absence of cytotoxicity | – |
| CO[C@@H]1[C@H](OC(=O)NC(=O)CCl)CC[C@]2(CO2)[C@H]1[C@@]1(C)O[C@@H]1CC=C(C)C [TNP470] | – | – | – | – | – | – | – | – | – | – | – | – | 80 |
